For this data set, the system named is Macrostomum lignano. The settings on record: for Overall prediction: final prediction call over three experiments; for prediction by the assay in the experiments: outcome over the experiments. The method, then:
Cultures of Macrostomum lignano (37) were grown in artificial seawater (ASW) enriched with f/2-medium (40) and fed ad libitum with the diatom Nitzschia curvilineata (PAE culture collection; UGent on the World Wide Web at pae.ugent.be/collection.htm), as described in references 41 and 43.
One week before starting chemical exposure, a six-well plate filled with 4 ml f/2 medium (Novolab NV) was inoculated with diatoms to achieve an ad libitum food source during exposure. Starvation of the worms leads to a decrease in stem cell proliferation (as shown in Nimeth et al (29)), which would interfere with stem cell proliferation, the endpoint of the assay. Before the start of exposure, fifteen adult worms per condition were pipetted in each well, which was then emptied by pipetting without drying out the worms and refilled with f/2 medium (control), if required, F2+0.05% DMSO (vehicle control) and a concentration of the chemical.
The DMSO concentration in the vehicle control never exceeded 0.05%. This represented the maximum DMSO percentage in the chemical's highest test concentration.
To select the appropriate compound concentration, first, a broad concentration range-finding experiment (spacing factor 10; two weeks exposure) was carried out. Based on this pilot range finding, a fine-tuned range finding (spacing factor less than or equal to 2; for D-Mannitol factor 5) was chosen to conduct the assay. The maximum concentration tested depended on the test compound solubility and the requirement of a survival of twelve out of fifteen worms at the end of exposure.
For all chemicals investigated in this disclosure, the medium was refreshed weekly.
After a preliminary test (CP as reference) on different exposure times ranging from two days to six weeks, the worms were exposed for a period of two weeks, after which they were subjected to phosphorylated histone H3 immunostaining (PH3) to quantify mitosis.
To quantify mitotic cells in whole mount specimens, the mitotic marker anti-PH3 was used. The staining was performed by first relaxing the animals in a 1:1 mixture of MgCl2.6H2O (7.14%) and ASW (5 minutes), then in MgCl2.6H2O (7.14%) (undiluted, 5 minutes), followed by fixation in paraformaldehyde (PFA, 4% in PBS, 60 minutes). Animals were then rinsed with phosphate-buffered saline (PBS, 3×5 minutes) and blocked in bovine serum albumin, containing TRITON® (BSA-T, 0.1% TRITON® X-100, 60 minutes). Subsequently, animals were incubated in primary rabbit-anti-phos-H3 (1:300 in BSA-T, overnight, 4° C., Upstate Biotechnology), rinsed in PBS (3×5 minutes) and incubated in secondary TRITC-conjugated swine-anti-rabbit (1:150 in BSA-T, 1 hour, DAKO). Finally, animals were washed with PBS (3×5 minutes) and slides were mounted using Vectashield (Vector Laboratories). Slides were analyzed using a Leica 2500P microscope equipped with epifluorescence, a 40× objective and a DFC360FX CCD camera.
All somatic PH3-positive cells were counted manually using the Image J cell counter plugin (44) (FIG. 1). Gonadal PH3+ cells were not included in the analysis because of 1) the high density of divisions in that region that can lead to overlapping signals and 2) the germ line representing a separate population of cells, differentially tolerant to exposure, which can result in quantification variability.
The cut-off value of the assay was determined based on density plots (R version 2.15.3; (33)) of the number of mitotic stem cells of all experiments for controls (sea water and DMSO), non-carcinogens, genotoxic carcinogens and non-genotoxic carcinogens. The cut-off value of 30 lays in the tail of the distribution corresponding to the 97.5 percentile or two standard deviations.
Concentrations resulting in the death of 20% of the worms (three out of fifteen) during exposure were considered cytotoxic and were not analyzed.

Where [1] appears, read: 100 μM, Experiment 2, two weeks exposure.
[2] abbreviates: 100 μM, Experiment 3, two weeks exposure.
The mark [3] stands for this setting: Experiment 2, all concentrations, two weeks exposure.
Setting [4] is: Experiment 3, all concentrations, two weeks exposure.
The mark [5] stands for this setting: 0.3125 μM, Experiment 1, two weeks exposure.
The mark [6] stands for this setting: 0.3125 μM, Experiment 3, two weeks exposure.
The mark [7] stands for this setting: 0.625 μM, Experiment 1, two weeks exposure.
Where [8] appears, read: 0.625 μM, Experiment 2, two weeks exposure.
[9] abbreviates: 0.625 μM, Experiment 3, two weeks exposure.

Like-named read-outs stand apart in the source and are kept apart here.

For the compound `O=P1(N(CCCl)CCCl)NCCCO1` (stereo not shown) [Cyclophosphamide monohydrate], the Overall prediction entry was “Pos”. Also, the “proportion of worms having 30 or more mitotic stem cells” value (from here on “proportion”) (50 μM, Experiment 1, two weeks exposure) was found to be 0%. Besides, under “50 μM, Experiment 2, two weeks exposure”, the “proportion” value worked out at 0%. The “proportion” value (50 μM, Experiment 3, two weeks exposure) came to 16.7%. Moreover, the “proportion” value (100 μM, Experiment 1 (only three worms quantified, experiment excluded), two weeks exposure) stood at 66.7%. For the same compound, under setting [1], the Pred result is on record as “+ (+ in case 20% or more worms having 30 or more mitotic stem cells)” and the “proportion” value came out at 20%. In addition, under setting [2], the Pred entry is “+ (+ in case 20% or more worms having 30 or more mitotic stem cells)” and the “proportion” value turned out to be 33.3%. Further, the “Prediction of the experiment” value under setting [3] was “Pos”. The “Prediction of the experiment” value under setting [4] is “Pos”. In addition, under “two weeks exposure”, the concentrations predicted positive was 100 µM and the “prediction by the assay in the experiments” value (shortened to “prediction by the assay”) is given as “predicted positive in all experiments”.

For the compound `Cc1noc(NS(=O)(=O)c2ccc(N)cc2)c1C` [Sulfisoxazole], the “proportion” value amounted to 0% (250 μM, Experiment 1, two weeks exposure); 0% (250 μM, Experiment 3, two weeks exposure); 0% (500 μM, Experiment 1, two weeks exposure); 11.1% (500 μM, Experiment 2, two weeks exposure); 0% (500 μM, Experiment 3, two weeks exposure); 0% (1000 μM, Experiment 1, two weeks exposure). Besides, the “proportion” value (1000 μM, Experiment 2, two weeks exposure) worked out at 0% and the “proportion” value (1000 μM, Experiment 3, two weeks exposure) came to 0%. Further, the “concentration up to which predicted negative” value (all three experiments, two weeks exposure) is given as “up to 1 mM”. The “lethality of the worms” value (concentrations higher than the highest analyzed (Sox >1 mM, CP >100 μM, 4NQO >0.5 μM)) is recorded as “greater than 20%”. Also, for the setting “two weeks exposure”, the “prediction by the assay” value is on record as “predicted negative for all three experiments”.

As to `CC/C(=C(/CC)c1ccc(O)cc1)c1ccc(O)cc1` [Diethylbestrol, Diethylstilbestrol], the Overall prediction entry is on record as “Pos”. Under setting [5], the Pred result is “+ (+ in case 20% or more worms having 30 or more mitotic stem cells)” and the “proportion” value worked out at 100%. The “proportion” value (0.3125 μM, Experiment 2, two weeks exposure) came out at 12.5%. For the same compound, under setting [6], the Pred entry is recorded as “+ (+ in case 20% or more worms having 30 or more mitotic stem cells)” and the “proportion” value was found to be 33.3%. Under setting [7], the Pred result is on record as “+ (+ in case 20% or more worms having 30 or more mitotic stem cells)” and the “proportion” value came out at 27.3%. Also, under setting [8], the Pred entry is “+ (+ in case 20% or more worms having 30 or more mitotic stem cells)” and the “proportion” value is 50%. Under setting [9], the Pred result is “+ (+ in case 20% or more worms having 30 or more mitotic stem cells)” and the “proportion” value worked out at 22.2%. Moreover, the “Prediction of the experiment” value (Experiment 1, all concentrations, two weeks exposure) is given as “Pos”. The “Prediction of the experiment” value under setting [3] was “Pos”. For the same compound, the “Prediction of the experiment” value under setting [4] is reported as “Pos”. Where the note is “two weeks exposure”, the “prediction by the assay” value was “predicted positive for all three experiments”.

The values are drawn from patent US10197556B2, “Methods to detect non-genotoxic carcinogens using flatworms” (Universiteit Gent, priority 2015, dated 2019).
